Experimental findings from patent US8022061B2, “N-aryl pyrazole compounds, compositions, and methods for their use” (Amgen Inc., priority 2006, dated 2011) are described below.

The first assay deals with ob/ob mice. Nature of the assay: Increase of circulating insulin concentrations in treated ob/ob mice. The format is in vivo. The settings on record: male ob/ob mice, dose 10 mg/kg p.o., 10 minutes after dosing, relative to control group. The procedure: The results presented below exemplify that administration of the compounds as provided herein to an art-recognized animal model of human diabetes can lead to increased circulating insulin concentrations in the animal model.
Male ob/ob mice were weighed and bled from tail vein, and blood glucose levels were determined with a glucometer. Animals were placed into control and treatment groups having similar averages of glucose levels and body weights. In the morning of the following day, animals were dosed with vehicle (control group) or test article (5 ml/kg, p.o.). Blood samples were collected just before and 10 minutes after dosing, and the samples were assayed for insulin and glucose concentrations.
Table 1 provides exemplary data showing the increase of circulating insulin concentrations (expressed as ng/ml) in treated mice relative to control group at 10 minutes after dosing the treated mice. Concentrations of the exemplary compound tested in the mice are provided in the righthand column.
Regarding `CCCc1c(C(=O)NC(C)c2ccncc2)cnn1-c1ncc(C)c(-c2cccs2)n1` (centres unmarked) [1-[5-Methyl-4-(2-thienyl)pyrimidin-2-yl]-5-propyl-N-(1-pyridin-4-ylethyl)-1H-pyrazole-4-carboxamide], the “Increase in Insulin” value was determined as 3.9 ng/mL.
The same measure, in the same setting: in the case of `CCCCc1c(C(=O)NCc2c(C)ncn2CC(=O)O)cnn1-c1ncc(C)c(-c2cccs2)n1` [(5-{[({5-Butyl-1-[5-methyl-4-(2-thienyl)pyrimidin-2-yl]-1H-pyrazol-4-yl}carbonyl)amino]methyl}-4-methyl-1H-imidazol-1-yl)acetic acid] it was 3.9 ng/mL.

The next assay relates to C57B6 mice. Nature of the assay: Glucose lowering effect after oral glucose challenge in C57B6 mice. Type of assay: in vivo. The settings on record: male C57B6 mice, p.o. 30 minutes before oral glucose 3 g/kg; blood glucose before, 20 and 50 minutes after challenge; relative to control group. The protocol:
The following example describes the glucose lowering effect of compounds observed in vivo.
Male C57B6 mice were placed into control and treatment groups having similar averages of body weights. Then, animals were dosed with vehicle (control group) or test article (5 ml/kg, p.o.). Thirty minutes after dosing, glucose (3 g/kg) was orally administered in each animal. Blood samples were collected just before, 20 minutes and 50 minutes after glucose challenge and glucose concentrations in the samples was assessed. The values in Table 2 represent the observed % AUC reduction of blood glucose in the treated animals relative to the control group.
Turning to `CCOCc1c(C(=O)NCc2cncn2C)cnn1-c1ncc(C)c(-c2nccs2)n1` [5-(Ethoxymethyl)-N-[(1-methyl-1H-imidazol-5-yl)methyl]-1-[5-methyl-4-(1,3-thiazol-2-yl)pyrimidin-2-yl]-1H-pyrazole-4-carboxamide], the “% AUC reduction in glucose levels” value is listed as 41%.
For `CCOCc1c(C(=O)NCc2cncn2C)cnn1-c1ncc(C)c(N2CC(F)(F)C(F)(F)C2)n1` [5-(Ethoxymethyl)-N-[(1-methyl-1H-imidazol-5-yl)methyl]-1-[5-methyl-4-(3,3,4,4-tetrafluoropyrrolidin-1-yl)pyrimidin-2-yl]-1H-pyrazole-4-carboxamide], the “% AUC reduction in glucose levels” value was 11%.
As for `CCOCc1c(C(=O)NCc2cncn2C)cnn1-c1ncc(C)c(-c2ccsc2)n1` [5-(Ethoxymethyl)-N-[(1-methyl-1H-imidazol-5-yl)methyl]-1-[5-methyl-4-(3-thienyl)pyrimidin-2-yl]-1H-pyrazole-4-carboxamide], the “% AUC reduction in glucose levels” value is given as 51%.
The same measure, in the same setting: in the case of `CCOCc1c(C(=O)NCc2c(CO)ncn2C)cnn1-c1ncc(C)c(-c2cccs2)n1` [5-(Ethoxymethyl)-N-{[4-(hydroxymethyl)-1-methyl-1H-imidazol-5-yl]methyl}-1-[5-methyl-4-(2-thienyl)pyrimidin-2-yl]-1H-pyrazole-4-carboxamide] it was 35%; in that of `CCCCc1c(C(=O)NCc2cnc3ccccn23)cnn1-c1ncc(Cl)c(NC2CC2)n1` [5-Butyl-1-[5-chloro-4-(cyclopropylamino)pyrimidin-2-yl]-N-(imidazo[1,2-a]pyridin-3-ylmethyl)-1H-pyrazole-4-carboxamide], 32%.
Same read-out and setting: in the case of `CCCCc1c(C(=O)NCc2cncn2C)cnn1-c1ncc(Cl)c(NC2CC2)n1` [5-Butyl-1-[5-chloro-4-(cyclopropylamino)pyrimidin-2-yl]-N-[(1-methyl-1H-imidazol-5-yl)methyl]-1H-pyrazole-4-carboxamide] it was 7%; in that of `CCCCc1c(C(=O)NCc2cnc3ccccn23)cnn1-c1ncc(C)c(N2CCCC2)n1` [5-Butyl-N-(imidazo[1,2-a]pyridin-3-ylmethyl)-1-(5-methyl-4-pyrrolidin-1-ylpyrimidin-2-yl)-1H-pyrazole-4-carboxamide], 34%; in that of `CCCCc1c(C(=O)NCc2c(C)nc3ccccn23)cnn1-c1ncc(C)c(-c2cccs2)n1` [5-Butyl-N-[(2-methylimidazo[1,2-a]pyridin-3-yl)methyl]-1-[5-methyl-4-(2-thienyl)pyrimidin-2-yl]-1H-pyrazole-4-carboxamide], 35%.
The same measure, in the same setting: the result for `CCCCc1c(C(=O)NCc2c(C)ncn2CC(=O)O)cnn1-c1ncc(C)c(-c2cccs2)n1` [(5-{[({5-Butyl-1-[5-methyl-4-(2-thienyl)pyrimidin-2-yl]-1H-pyrazol-4-yl}carbonyl)amino]methyl}-4-methyl-1H-imidazol-1-yl)acetic acid] reads 19%.
`CCCCc1c(C(=O)NCc2cnc3cc(C(=O)OC)ccn23)cnn1-c1ncc(Cl)c(NC2CC2)n1` [Methyl 3-{[({5-butyl-1-[5-chloro-4-(cyclopropylamino)pyrimidin-2-yl]-1H-pyrazol-4-yl}carbonyl)amino]methyl}imidazo[1,2-a]pyridine-7-carboxylate]: the “% AUC reduction in glucose levels” value is reported as 24%.
In the case of `CCCc1c(C(=O)NCc2c(CO)ncn2C)cnn1-c1ncc(C)c(N2CCOCC2)n1` [N-{[4-(Hydroxymethyl)-1-methyl-1H-imidazol-5-yl]methyl}-1-(5-methyl-4-morpholin-4-ylpyrimidin-2-yl)-5-propyl-1H-pyrazole-4-carboxamide], the “% AUC reduction in glucose levels” value worked out at 6%.
On the same count and under the same terms, the result for `CCCc1c(C(=O)NCc2c(CO)ncn2C)cnn1-c1ncc(C)c(-c2cccs2)n1` [N-{[4-(Hydroxymethyl)-1-methyl-1H-imidazol-5-yl]methyl}-1-[5-methyl-4-(2-thienyl)pyrimidin-2-yl]-5-propyl-1H-pyrazole-4-carboxamide] reads 35%.
Same read-out and setting: the result for `COCc1c(C(=O)NCc2c(CO)ncn2C)cnn1-c1ncc(C)c(N2CCCCC2)n1` [N-{[4-(Hydroxymethyl)-1-methyl-1H-imidazol-5-yl]methyl}-5-(methoxymethyl)-1-(5-methyl-4-piperidin-1-ylpyrimidin-2-yl)-1H-pyrazole-4-carboxamide] reads 14%; that for `COCc1c(C(=O)NCc2c(CO)ncn2C)cnn1-c1ncc(C)c(-c2cccs2)n1` [N-{[4-(Hydroxymethyl)-1-methyl-1H-imidazol-5-yl]methyl}-5-(methoxymethyl)-1-[5-methyl-4-(2-thienyl)pyrimidin-2-yl]-1H-pyrazole-4-carboxamide], 14%.

Another assay concerns glucose-challenged animal models of diabetes. Nature of the assay: Glucose-challenged animal models of diabetes, circulating insulin (FIG. 1). The format is in vivo. The settings on record: glucose challenge, treated animals relative to control animals. The procedure: The following example describes how compounds can be evaluated in vivo in glucose-challenged animal models.
Art-recognized animal models of diabetes, such as type 2 diabetes, include diet-induced obese C57BL/6 (“B6”) mice and ob/ob mice. See, e.g., Breyer et al., J. Am. Soc. Nephrol. 16:27-45 (2005) and references cited therein.
Rats (aged 5-20) weeks or mice (aged 6-20 weeks) are fasted overnight beginning at 4 pm. Between 9 and 10 am, glucose levels are determined with a glucometer using whole blood samples removed from the tail. The animals are placed into control and treatment groups having similar averages of glucose levels and body weights or similar averages of body weights (B6 mice). Animals are pre-dosed with vehicle (control group) or test article (5-10 mL/kg, p.o., s.c. or i.p.) and then challenged with glucose (1 g/kg, p.o. or i.p.). Blood samples are then collected from the tail and assay for glucose and insulin levels.
For the compound `CCCc1c(C(=O)NC(C)c2ccncc2)cnn1-c1ncc(C)c(-c2cccs2)n1` (centres unmarked) [1-[5-Methyl-4-(2-thienyl)pyrimidin-2-yl]-5-propyl-N-(1-pyridin-4-ylethyl)-1H-pyrazole-4-carboxamide], the circulating insulin levels entry is “increases in circulating insulin levels”.
